Assay results: patent US11753397B2, “Cereblon binders for the degradation of ikaros” (C4 Therapeutics, Inc., priority 2018, dated 2023)
Counter-ions that a name gives are not always drawn.

Test system: NCIH929.1 cells
Assay: Cell viability assay (CellTiter-Glo 2.0, ATP quantification)
Type: cell-based
Conditions: NCIH929.1 cell viability, CellTiter-Glo 2.0, 96 hr incubation, top concentration 1 μM
Outline: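 Cells seeded at 750/well in RPMI with 10% FBS and 0.05 mM 2-mercaptoethanol, exposed 96 h at 37 °C to 10-point half-log dilutions in duplicate, top 1 μM. Viability by CellTiter-Glo 2.0 ATP luminescence, with a day-0 read as cytostatic baseline (CT0).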

SMILES | GI50 [nM]
O=C1CCC(N2C(=O)c3cccc(NCc4cnn(C5CCCC5)c4)c3C2=O)C(=O)N1 (centres unmarked) [Compound 151, 4-[(1-cyclopentylpyrazol-4-yl)methylamino]-2-(2,6-dioxo-3-piperidyl)isoindoline-1,3-dione] | < 100
CC(C)n1cc(CNc2cccc3c2C(=O)N(C2CCC(=O)NC2=O)C3=O)cn1 (centres unmarked) [Compound 152, 2-(2,6-dioxo-3-piperidyl)-4-[(1-isopropylpyrazol-4-yl)methylamino]isoindoline-1,3-dione] | < 100
O=C1CCC(N2C(=O)c3cccc(NCc4cnn(CC(F)(F)F)c4)c3C2=O)C(=O)N1 (centres unmarked) [Compound 153, 2-(2,6-dioxo-3-piperidyl)-4-[[1-(2,2,2-trifluoroethyl)pyrazol-4-yl]methylamino]isoindoline-1,3-dione] | < 100
CN(CCCn1cc(CNc2cccc3c2C(=O)N(C2CCC(=O)NC2=O)C3=O)cn1)C(=O)OC(C)(C)C (centres unmarked) [Compound 154, tert-butyl N-[3-[4-[[[2-(2,6-dioxo-3-piperidyl)-1,3-dioxo-isoindolin-4-yl]amino]methyl]pyrazol-1-yl]propyl]-N-methyl-carbamate] | < 100
O=C1CCC(N2C(=O)c3cccc(NCc4cnn(CC5CCOCC5)c4)c3C2=O)C(=O)N1 (centres unmarked) [Compound 155, 2-(2,6-dioxo-3-piperidyl)-4-[[1-(tetrahydropyran-4-ylmethyl)pyrazol-4-yl]methylamino]isoindoline-1,3-dione] | < 100
CC(=O)N1C2CCC1CC(n1cc(CNc3cccc4c3C(=O)N(C3CCC(=O)NC3=O)C4=O)cn1)C2 (centres unmarked) [Compound 156, 4-[[1-(8-acetyl-8-azabicyclo[3.2.1]octan-3-yl)pyrazol-4-yl]methylamino]-2-(2,6-dioxo-3-piperidyl)isoindoline-1,3-dione] | < 100
CN1CCC(n2cc(CNc3cccc4c3C(=O)N(C3CCC(=O)NC3=O)C4=O)cn2)CC1 (centres unmarked) [Compound 157, 2-(2,6-dioxo-3-piperidyl)-4-[[1-(1-methyl-4-piperidyl)pyrazol-4-yl]methylamino]isoindoline-1,3-dione] | < 100
O=C1CCC(N2C(=O)c3cccc(NCc4cnn(C5CCCCC5)c4)c3C2=O)C(=O)N1 (centres unmarked) [Compound 158, 4-[(1-cyclohexylpyrazol-4-yl)methylamino]-2-(2,6-dioxo-3-piperidyl)isoindoline-1,3-dione] | < 100
CC(=O)N1CCC(n2cc(CNc3cccc4c3C(=O)N(C3CCC(=O)NC3=O)C4=O)cn2)CC1 (centres unmarked) [Compound 159, 4-[[1-(1-acetyl-4-piperidyl)pyrazol-4-yl]methylamino]-2-(2,6-dioxo-3-piperidyl)isoindoline-1,3-dione] | < 100
O=C1CCC(N2C(=O)c3cccc(NCc4cnn(C5CCN(CC(F)(F)F)CC5)c4)c3C2=O)C(=O)N1 (centres unmarked) [Compound 160, 2-(2,6-Dioxo-piperidin-3-yl)-4-({1-[1-(2,2,2-trifluoro-ethyl)-piperidin-4-yl]-1H-pyrazol-4-ylmethyl}-amino)-isoindole-1,3-dione] | < 100
CC(C)(C)NC(=O)N1CCC(n2cc(CNc3cccc4c3C(=O)N(C3CCC(=O)NC3=O)C4=O)cn2)CC1 (centres unmarked) [Compound 161, 4-(4-{[2-(2,6-Dioxo-piperidin-3-yl)-1,3-dioxo-2,3-dihydro-1H-isoindol-4-ylamino]-methyl}-pyrazol-1-yl)-piperidine-1-carboxylic acid tert-butylamide] | < 100
O=C1CCC(N2C(=O)c3cccc(NCc4cnn(C5CC5)c4)c3C2=O)C(=O)N1 (centres unmarked) [Compound 163, 4-[(1-Cyclopropyl-1H-pyrazol-4-ylmethyl)-amino]-2-(2,6-dioxo-piperidin-3-yl)-isoindole-1,3-dione] | < 100
O=C1CCC(N2C(=O)c3cccc(NCc4cnn(C5CCN(C(=O)OCC(F)(F)F)CC5)c4)c3C2=O)C(=O)N1 (centres unmarked) [Compound 165, 4-(4-{[2-(2,6-Dioxo-piperidin-3-yl)-1,3-dioxo-2,3-dihydro-1H-isoindol-4-ylamino]-methyl}-pyrazol-1-yl)-piperidine-1-carboxylic acid 2,2,2-trifluoro-ethyl ester] | < 100
CC(C)(C)OC(=O)N1C2CCC1CC(n1cc(CNc3cccc4c3C(=O)N(C3CCC(=O)NC3=O)C4=O)cn1)C2 (centres unmarked) [Compound 166, tert-Butyl 3-(4-(((2-(2,6-dioxopiperidin-3-yl)-1,3-dioxoisoindolin-4-yl)amino)methyl)-1H-pyrazol-1-yl)-8-azabicyclo[3.2.1]octane-8-carboxylate] | < 100
CC(C)(C)OC(=O)N1CC2(CC(n3cc(CNc4cccc5c4C(=O)N(C4CCC(=O)NC4=O)C5=O)cn3)C2)C1 (centres unmarked) [Compound 167, tert-Butyl 6-(4-(((2-(2,6-dioxopiperidin-3-yl)-1,3-dioxoisoindolin-4-yl)amino)methyl)-1H-pyrazol-1-yl)-2-azaspiro[3.3]heptane-2-carboxylate] | < 100
CC1CC(n2cc(CNc3cccc4c3C(=O)N(C3CCC(=O)NC3=O)C4=O)cn2)CC(C)N1C(=O)OC(C)(C)C (centres unmarked) [Compound 168, tert-Butyl 4-(4-(((2-(2,6-dioxopiperidin-3-yl)-1,3-dioxoisoindolin-4-yl)amino)methyl)-1H-pyrazol-1-yl)-2,6-dimethylpiperidine-1-carboxylate] | < 100
CC(C)(C)OC(=O)N1CCC(n2cc(CNc3cccc4c3C(=O)N(C3CCC(=O)NC3=O)C4=O)cn2)CC1(C)C (centres unmarked) [Compound 169, tert-Butyl 4-(4-(((2-(2,6-dioxopiperidin-3-yl)-1,3-dioxoisoindolin-4-yl)amino)methyl)-1H-pyrazol-1-yl)-2,2-dimethylpiperidine-1-carboxylate] | < 1
O=C1CCC(N2C(=O)c3cccc(NCc4cnn([C@H]5CC[C@H](C(=O)N6CCCCC6)CC5)c4)c3C2=O)C(=O)N1 (some centres unmarked) [Compound 170, 2-(2,6-Dioxopiperidin-3-yl)-4-(((1-((1r,4r)-4-(piperidine-1-carbonyl)cyclohexyl)-1H-pyrazol-4-yl)methyl)amino)isoindoline-1,3-dione] | < 100
Cc1nn(C2CCN(C(=O)C3(C)CCC3)CC2)c(C)c1CNc1cccc2c1C(=O)N(C1CCC(=O)NC1=O)C2=O (centres unmarked) [Compound 171, 4-(((3,5-Dimethyl-1-(1-(1-methylcyclobutane-1-carbonyl)piperidin-4-yl)-1H-pyrazol-4-yl)methyl)amino)-2-(2,6-dioxopiperidin-3-yl)isoindoline-1,3-dione] | < 100
CC1(C(=O)N2CCC(c3ccccc3)(n3cc(CNc4cccc5c4C(=O)N(C4CCC(=O)NC4=O)C5=O)cn3)CC2)CCC1 (centres unmarked) [Compound 172, 2-(2,6-Dioxopiperidin-3-yl)-4-(((1-(1-(1-methylcyclobutane-1-carbonyl)-4-phenylpiperidin-4-yl)-1H-pyrazol-4-yl)methyl)amino)isoindoline-1,3-dione] | < 100
CC1(C(=O)N2CCC(C)(n3cc(CNc4cccc5c4C(=O)N(C4CCC(=O)NC4=O)C5=O)cn3)CC2)CCC1 (centres unmarked) [Compound 173, 2-(2,6-Dioxopiperidin-3-yl)-4-(((1-(4-methyl-1-(1-methylcyclobutane-1-carbonyl)piperidin-4-yl)-1H-pyrazol-4-yl)methyl)amino)isoindoline-1,3-dione] | < 100
CC(Nc1cccc2c1C(=O)N(C1CCC(=O)NC1=O)C2=O)c1cnn(C2CCN(C(=O)OC(C)(C)C)CC2)c1 (centres unmarked) [Compound 174, tert-Butyl 4-(4-(1-((2-(2,6-dioxopiperidin-3-yl)-1,3-dioxoisoindolin-4-yl)amino)ethyl)-1H-pyrazol-1-yl)piperidine-1-carboxylate] | < 100
NC1(C(=O)N2CCC(n3cc(CNc4cccc5c4C(=O)N(C4CCC(=O)NC4=O)C5=O)cn3)CC2)CCC1 (centres unmarked) [Compound 175, 4-[[1-[1-(1-aminocyclobutanecarbonyl)-4-piperidyl]pyrazol-4-yl]methylamino]-2-(2,6-dioxo-3-piperidyl)isoindoline-1,3-dione hydrochloride] | < 100
CC(C)(C)OC(=O)N1CCC(n2cc(CNc3cccc4c3C(=O)N(C3CCC(=O)NC3=O)C4=O)cn2)C(F)(F)C1 (centres unmarked) [Compound 176, tert-Butyl 4-(4-(((2-(2,6-dioxopiperidin-3-yl)-1,3-dioxoisoindolin-4-yl)amino)methyl)-1H-pyrazol-1-yl)-3,3-difluoropiperidine-1-carboxylate] | < 100
O=C1CCC(N2C(=O)c3cccc(NCc4cnn(C5CCC(CC6CCCCC6)CC5)c4)c3C2=O)C(=O)N1 (centres unmarked) [Compound 177, 4-(((1-(4-(Cyclohexylmethyl)cyclohexyl)-1H-pyrazol-4-yl)methyl)amino)-2-(2,6-dioxopiperidin-3-yl)isoindoline-1,3-dione] | < 100
CN(C(=O)N1CCC(n2cc(CNc3cccc4c3C(=O)N(C3CCC(=O)NC3=O)C4=O)cn2)CC1)C(C)(C)C (centres unmarked) [Compound 178, N-(tert-Butyl)-4-(4-(((2-(2,6-dioxopiperidin-3-yl)-1,3-dioxoisoindolin-4-yl)amino)methyl)-1H-pyrazol-1-yl)-N-methylpiperidine-1-carboxamide] | < 100
CC1(C(=O)N2CCC(n3cc(CNc4cccc5c4C(=O)N(C4CCC(=O)NC4=O)C5=O)c(N)n3)CC2)CCC1 (centres unmarked) [Compound 179, 4-(((3-Amino-1-(1-(1-methylcyclobutane-1-carbonyl)piperidin-4-yl)-1H-pyrazol-4-yl)methyl)amino)-2-(2,6-dioxopiperidin-3-yl)isoindoline-1,3-dione] | < 100
CC(C)Oc1cc(C2CC2)cc(-n2cc(CNc3cccc4c3C(=O)N(C3CCC(=O)NC3=O)C4=O)cn2)c1 (centres unmarked) [Compound 180, 4-{[1-(3-Cyclopropyl-5-isopropoxy-phenyl)-1H-pyrazol-4-ylmethyl]-amino}-2-(2,6-dioxo-piperidin-3-yl)-isoindole-1,3-dione] | < 100
O=C1CCC(N2C(=O)c3cccc(NCc4cnn(C5CN(c6ccccc6)C5)c4)c3C2=O)C(=O)N1 (centres unmarked) [Compound 181, 2-(2,6-Dioxo-piperidin-3-yl)-4-{[1-(1-phenyl-azetidin-3-yl)-1H-pyrazol-4-ylmethyl]-amino}-isoindole-1,3-Dione] | < 100
